The results in this text go back to patent publication US12637433B2, “Histone deacetylase inhibitors” (THE UNIVERSITY OF QUEENSLAND, priority 2020, dated 2026).

What is called IC50 is the concentration that inhibits the measured activity by half.

Structures are written as SMILES. Some results are limits rather than exact numbers.

T1 sequence (Q8WUI4 whole entry): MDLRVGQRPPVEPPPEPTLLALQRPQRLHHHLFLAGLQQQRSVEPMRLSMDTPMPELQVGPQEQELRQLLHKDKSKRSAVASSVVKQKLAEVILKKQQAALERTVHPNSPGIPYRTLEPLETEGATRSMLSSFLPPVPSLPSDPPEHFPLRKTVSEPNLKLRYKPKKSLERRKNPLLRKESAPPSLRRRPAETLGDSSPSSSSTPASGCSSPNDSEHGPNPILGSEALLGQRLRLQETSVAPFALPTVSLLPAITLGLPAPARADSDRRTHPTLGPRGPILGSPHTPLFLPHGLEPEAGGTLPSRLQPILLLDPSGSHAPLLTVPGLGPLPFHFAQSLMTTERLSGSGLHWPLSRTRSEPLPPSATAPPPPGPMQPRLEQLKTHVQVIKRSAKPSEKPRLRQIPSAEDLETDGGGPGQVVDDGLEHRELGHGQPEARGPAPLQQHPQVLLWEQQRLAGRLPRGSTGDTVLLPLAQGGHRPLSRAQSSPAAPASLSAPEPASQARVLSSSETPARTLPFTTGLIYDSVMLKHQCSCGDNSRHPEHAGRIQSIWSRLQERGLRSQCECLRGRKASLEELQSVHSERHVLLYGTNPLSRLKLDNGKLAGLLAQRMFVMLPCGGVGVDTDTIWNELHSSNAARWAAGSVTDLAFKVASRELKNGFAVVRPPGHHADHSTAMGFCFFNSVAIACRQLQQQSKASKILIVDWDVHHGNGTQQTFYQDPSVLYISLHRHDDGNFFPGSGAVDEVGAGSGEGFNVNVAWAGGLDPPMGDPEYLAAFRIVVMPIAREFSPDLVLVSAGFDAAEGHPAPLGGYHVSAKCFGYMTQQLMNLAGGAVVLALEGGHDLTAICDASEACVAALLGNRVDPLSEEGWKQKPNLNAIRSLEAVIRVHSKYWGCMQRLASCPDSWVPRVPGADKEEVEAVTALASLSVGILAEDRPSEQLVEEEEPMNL

The experiment has as its target T1, human HDAC7 enzyme (Homo sapiens, UniProt Q8WUI4).
T1 construct: purchased Reaction Biology Corp
Put plainly: Human HDAC7 enzyme assay (Class IIa HDACs). It is filed as biochemical. The conditions noted are these: Table 8; recombinant human HDAC7.
Take `CC1C(=O)NC(Cc2ccccc2)C(=O)N1Cc1ccc(C(=O)NO)c(-c2ccccc2)c1` (mixture of isomers) [Example 96]: the IC50 is 322 ± 109 nM.

As for `O=C(NCc1ccc(C(=O)NO)c(-c2ccccc2F)c1)Nc1cccc2cccnc12` [Example 4], the IC50 came to 152 ± 40 nM.

For `O=C(NCc1ccc(C(=O)NO)c(-c2cccc(F)c2)c1)Nc1cccc2cccnc12` [Example 5], the half-inhibitory concentration (IC50) was 64 ± 12 nM.

With `O=C(NCc1ccc(C(=O)NO)c(-c2ccc(F)cc2)c1)Nc1cccc2cccnc12` [Example 6], the IC50 amounted to 118 ± 21 nM.

In the case of `O=C(NCc1ccc(C(=O)NO)c(-c2ccccc2Cl)c1)Nc1cccc2cccnc12` [Example 7], the IC50 turned out to be 178 ± 47 nM.

As for `O=C(NCc1ccc(C(=O)NO)c(-c2cccc(Cl)c2)c1)Nc1cccc2cccnc12` [Example 8], the IC50 worked out at 886 ± 192 nM.

As to `Cc1ccccc1-c1cc(CNC(=O)Nc2cccc3cccnc23)ccc1C(=O)NO` [Example 9], the IC50 was found to be 125 ± 26 nM.

Take `Cc1cccc(-c2cc(CNC(=O)Nc3cccc4cccnc34)ccc2C(=O)NO)c1` [Example 10]: the IC50 is greater than 10000 nM.

Turning to `Cc1ccc(-c2cc(CNC(=O)Nc3cccc4cccnc34)ccc2C(=O)NO)cc1` [Example 11], the IC50 stood at 1890 ± 431 nM.

On to `O=C(NCc1ccc(C(=O)NO)c(-c2ccccc2)c1)c1ccccc1` [Example 15], for which the IC50 came out at 123 ± 39 nM.

For the compound `O=C(NCc1ccc(C(=O)NO)c(-c2ccccc2)c1)c1ccccn1` [Example 16], the IC50 worked out at 108 ± 34 nM.

Regarding `O=C(NCc1ccc(C(=O)NO)c(-c2ccccc2)c1)c1cccnc1` [Example 17], the IC50 was determined as 151 ± 52 nM.

For the compound `O=C(NCc1ccc(C(=O)NO)c(-c2ccccc2)c1)c1ccncc1` [Example 18], the IC50 is 205 ± 47 nM.

As for `CC(=O)Nc1cccc(C(=O)NCc2ccc(C(=O)NO)c(-c3ccccc3)c2)c1` [Example 19], the IC50 is 78 ± 21 nM.

Consider `CC(=O)Nc1ccc(C(=O)NCc2ccc(C(=O)NO)c(-c3ccccc3)c2)cc1` [Example 20], for which the IC50 worked out at 101 ± 26 nM.

As for `NC(=O)c1ccc(C(=O)NCc2ccc(C(=O)NO)c(-c3ccccc3)c2)cc1` [Example 21], the IC50 amounted to 116 ± 27 nM.

For the compound `O=C(NCc1ccc(C(=O)NO)c(-c2ccccc2)c1)c1ccccc1NC(=O)C(F)(F)F` [Example 22], the IC50 came to 925 ± 865 nM.

For the compound `O=C(Cc1c[nH]c2ccccc12)NCc1ccc(C(=O)NO)c(-c2ccccc2)c1` [Example 25], the IC50 worked out at 238 ± 86 nM.

Regarding `O=C(NO)c1ccc(CNC(=O)C2CCCN2)cc1-c1ccccc1` (centres unmarked) [Example 27], the IC50 worked out at 960 ± 225 nM.

In the case of `O=C(NCc1ccc(C(=O)NO)c(-c2ccccc2)c1)Nc1ccccc1` [Example 28], the IC50 was 104 ± 21 nM.

As to `CCCCCCNC(=O)NCc1ccc(C(=O)NO)c(-c2ccccc2)c1` [Example 29], the IC50 turned out to be 196 ± 66 nM.

Turning to `O=C(NO)c1ccc(CNCc2ccccc2)cc1-c1ccccc1` [Example 30, 5-((benzylamino)methyl)-N-hydroxy-[1,1′-biphenyl]-2-carboxamide], the IC50 is 1470 ± 426 nM.

In the case of `O=C(NO)c1ccc(CNCc2ccc(C(=O)NO)c(-c3ccccc3)c2)cc1-c1ccccc1` [Example 31, bis(4-hydroxyaminocarbonyl-3-phenylbenzyl)amine], the IC50 was 125 ± 22 nM.

For `COC(=O)c1ccc(CNCc2ccc(C(=O)NO)c(-c3ccccc3)c2)cc1-c1ccccc1` [Example 32, N-(4-hydroxyaminocarbonyl-3-phenylbenzyl)-N-(4-methoxycarbonyl-3-phenylbenzyl)amine], the IC50 was determined as 137 ± 30 nM.

Take `O=C(O)c1ccc(CNCc2ccc(C(=O)NO)c(-c3ccccc3)c2)cc1-c1ccccc1` [Example 33, N-(4-hydroxyaminocarbonyl-3-phenylbenzyl)-N-(4-hydroxycarbonyl-3-phenylbenzyl)amine]: the IC50 is 658 ± 208 nM.

As to `O=C(NO)c1c(F)cc(CN2C(=O)c3ccccc3S2(=O)=O)cc1-c1ccccc1` [Example 57b], the IC50 is 582 ± 104 nM.

As to `O=C(NO)c1ccc(C(n2cc(-c3ccccc3)nn2)n2cc(-c3ccccc3)nn2)cc1-c1ccccc1` [Example 58], the concentration for half-maximal inhibition (IC50) worked out at 5 ± 1 nM.

As for `O=C(Nc1ccc(C(=O)NO)c(-c2ccccc2)c1)c1ccccc1` [Example 60], the IC50 was found to be 325 nM.

As to `O=C(Nc1ccc(C(=O)NO)c(-c2ccccc2)c1)c1ccc(F)cc1` [Example 61], the half-maximal inhibitory concentration (IC50) stood at 645 nM.

As for `Cc1ccc(C(=O)Nc2ccc(C(=O)NO)c(-c3ccccc3)c2)cc1` [Example 62], the IC50 is 431 nM.

Consider `COc1ccc(C(=O)Nc2ccc(C(=O)NO)c(-c3ccccc3)c2)cc1` [Example 63], for which the 50% inhibitory concentration (IC50) came to 323 nM.

With `O=C(NO)c1ccc(Nc2ccccc2)cc1-c1ccccc1` [Example 66], the IC50 was 94 nM.

For the compound `O=C(NO)c1ccc(Nc2ccc(F)cc2)cc1-c1ccccc1` [Example 67], the IC50 is 88 nM.

Take `O=C(NO)c1ccc(Nc2ccc(Cl)cc2)cc1-c1ccccc1` [Example 68]: the IC50 came out at 178 nM.

In the case of `O=C(NO)c1ccc(Nc2ccc(C(F)(F)F)cc2)cc1-c1ccccc1` [Example 69], the IC50 was 578 nM.

Consider `O=C(NO)c1ccc(Nc2cc(F)c(F)c(F)c2)cc1-c1ccccc1` [Example 70], for which the IC50 was 649 nM.

Consider `O=C(NO)c1ccc(Nc2cc(F)cc(F)c2)cc1-c1ccccc1` [Example 71], for which the IC50 stood at 206 nM.

Take `O=C(NO)c1ccc(Nc2ccc(-c3ccccc3)cc2)cc1-c1ccccc1` [Example 72]: the IC50 is greater than 10000 nM.

With `O=C(NO)c1ccc(Nc2ccc3ccccc3c2)cc1-c1ccccc1` [Example 73], the IC50 was 321 nM.

Take `O=C(O)c1ccc(Nc2ccc(C(=O)NO)c(-c3ccccc3)c2)cc1` [Example 74]: the half-maximal inhibitory concentration (IC50) came out at 68 ± 15 nM.

For the compound `CC(C)(C)OC(=O)c1ccc(Nc2ccc(C(=O)NO)c(-c3ccccc3)c2)cc1` [Example 75], the IC50 was 54 ± 7 nM.

Regarding `Cc1ccc(Nc2ccc(C(=O)NO)c(-c3ccccc3)c2)cc1` [Example 76], the IC50 worked out at 81 ± 19 nM.

Regarding `COc1ccc(Nc2ccc(C(=O)NO)c(-c3ccccc3)c2)cc1` [Example 77], the IC50 stood at 61 ± 9 nM.

As for `O=C(NO)c1ccc(Oc2ccc(F)cc2)cc1-c1ccccc1` [Example 80], the IC50 came to 175 ± 26 nM.

As to `CN(c1ccc(F)cc1)c1ccc(C(=O)NO)c(-c2ccccc2)c1` [Example 81], the IC50 stood at 64 ± 10 nM.

Regarding `O=C(NO)c1ccc(Nc2ccccn2)cc1-c1ccccc1` [Example 82], the IC50 was found to be 249 nM.

On to `O=C(NO)c1ccc(Nc2ncccn2)cc1-c1ccccc1` [Example 83], for which the IC50 stood at 447 ± 177 nM.

Consider `O=C(NO)c1ccc(Nc2cnccn2)cc1-c1ccccc1` [Example 84], for which the IC50 was 233 ± 95 nM.

In the case of `O=C(NO)c1ccc(NC(=O)C2(c3c[nH]c(-c4ccc([N+](=O)[O-])cc4)n3)CCCC2)cc1-c1ccccc1` [Example 85], the IC50 stood at 625 ± 318 nM.

On to `O=C(Nc1ccccc1)Nc1ccc(C(=O)NO)c(-c2ccccc2)c1` [Example 86], for which the IC50 worked out at 248 nM.

On to `O=C(NO)c1ccc(NC(=O)C2(C(=O)Nc3ccccc3)CC2)cc1-c1ccccc1` [Example 87], for which the IC50 was found to be 241 nM.

Turning to `O=C(NO)c1ccc(NC(=O)C2(C(=O)Nc3ccccc3)CCC2)cc1-c1ccccc1` [Example 88], the IC50 is 75 ± 23 nM.

`O=C(NO)c1ccc(NC(=O)C2(C(=O)Nc3ccccc3)CCCC2)cc1-c1ccccc1` [Example 89]: the IC50 was found to be 243 nM.

Consider `O=C(NO)c1ccc(NC(=O)C2(C(=O)Nc3ccccc3)CCCCC2)cc1-c1ccccc1` [Example 90], for which the half-maximal inhibitory concentration (IC50) is 168 nM.

For `C[C@H](N)C(=O)NCc1ccc(C(=O)NO)c(-c2ccccc2)c1` [Example 92], the IC50 was found to be 3130 ± 1730 nM.

Regarding `O=C(NO)c1ccc(NC(=O)C2(c3ccc4ccccc4c3)CCOCC2)cc1-c1ccccc1` [Example 93], the IC50 amounted to 1590 nM.

For `O=C(NCc1ccc(C(=O)NO)c(-c2ccccc2)c1)c1cnc[nH]1` [Example 94], the IC50 came to 165 ± 45 nM.

For `O=C(NO)c1ccc(CNCc2ccc[nH]2)cc1-c1ccccc1` [Example 95], the IC50 amounted to 914 ± 204 nM.

On to `CC1C(=O)Nc2ccccc2C(=O)N1Cc1ccc(C(=O)NO)c(-c2ccccc2)c1` (centres unmarked) [Example 97], for which the IC50 came to 74 ± 13 nM.

In the case of `CC1C(=O)N(C2CCCCC2)C(=O)N1Cc1ccc(C(=O)NO)c(-c2ccccc2)c1` (centres unmarked) [Example 98], the IC50 is 100 ± 18 nM.

On to `Nc1ccc(C(=O)NO)c(-c2ccccc2)c1` [Example 99], for which the IC50 was found to be 945 nM.

With `Cc1nc2ccccc2c(=O)n1Cc1ccc(C(=O)N(C)O)c(-c2ccccc2)c1` [Example 100], the half-inhibitory concentration (IC50) is no less than 10000 nM.

For the compound `CONC(=O)c1ccc(Cn2c(C)nc3ccccc3c2=O)cc1-c1ccccc1` [Example 101], the half-inhibitory concentration (IC50) was no less than 10000 nM.

As to `COc1ccc(-c2cc(CNC(=O)Nc3cccc4cccnc34)ccc2C(=O)NO)cc1` [Example 102], the IC50 is greater than 10000 nM.

For the compound `COc1cccc(-c2cc(CNC(=O)Nc3cccc4cccnc34)ccc2C(=O)NO)c1` [Example 103], the IC50 is greater than 10000 nM.

With `O=C(NCc1ccc(C(=O)NO)c(-c2cn[nH]c2)c1)Nc1cccc2cccnc12` [Example 104], the IC50 is greater than 10000 nM.

Turning to `Nc1ccc(-c2cc(CNC(=O)Nc3cccc4cccnc34)ccc2C(=O)NO)cc1` [Example 105], the IC50 is greater than 10000 nM.

As to `Cc1nc2ccccc2c(=O)n1Cc1ccc(C(=O)NO)c(C2CC2)c1` [Example 106], the IC50 came to 8660 nM.
